Measured values reported in patent publication US8410310B2, “Trypsin-like serine protease inhibitors, and their preparation and use” (The Medicines Company (Leipzig) GmbH, priority 2006, dated 2013).

Legend:
[1] = tested on: t-PA-induced fibrinolysis in plasma; assay: Plasma fibrinolysis assay (turbidometric); format: biochemical; details: human plasma, t-PA 50 U/mL; for IC50: read-out: IC50 on t-PA-induced fibrinolysis in plasma (median [25%; 75% percentile])
Method: Venous blood was withdrawn from the antecubital vein from healthy volunteers after written informed consent in accordance with local and federal guidelines with approval of the local review board (Ethikkommission, Klinikum Charité, Sauerbruchweg 5, 10117 Berlin). The blood was mixed with 0.11 mol/L sodium citrate (1:10). For ROTEM® analysis, whole citrated blood was used within 8 h after collection. Platelet-rich plasma (PRP) was prepared from citrated blood by centrifugation at 330×g for 10 min at room temperature, platelet-poor plasma (PPP) was collected following centrifugation at 1220×g for 12 min. The PRP was then adjusted to 3×10^8 platelets per mL using the autologous PPP. PRP was maintained at room temperature for less than 4 h before analysis. The remaining PPP was subjected to a high-speed centrifugation at 40,000×g for 30 min at 4° C. to remove any particulate material and was then stored at −70° C. until use.
The antifibrinolytic activity of Compound No. 3 in comparison to aprotinin and tranexamic acid was investigated in plasma and whole blood assays. In both assays, tissue factor was added to initiate rapid clot formation via the extrinsic pathway which produces a clot that remains stable for several hours under normal conditions. Supplementation of plasma or whole blood with tissue-type plasminogen activator (t-PA) before stimulation results in activation of endogenous plasminogen and thus fibrinolysis while the initial clot formation is not impaired. […] A final concentration of 50 U/mL and 100 U/mL in plasma and whole blood, respectively, was chosen to achieve complete lysis within about 60 min. In the presence of antifibrinolytics, clot lysis is delayed in a concentration-dependent manner.
Inhibition of fibrinolysis in plasma was examined using a turbidometric method in 96-well flat-bottom plates. The time course of clot formation and lysis, reflected by an initial increase and subsequent decrease in turbidity, was recorded by continuously measuring the optical density (OD) at 405 nm. Similar models have been used widely to study the clot lysis process in human plasma (Kim et al., J. Thromb. Haemost. 5: 1250-6, 2007) as well as its inhibition by antifibrinolytic drugs (Sperzel et al., J. Thromb. Haemost. 5: 2113-8, 2007). Frozen and thawed human plasma (PPP) was pre-incubated with test compound or vehicle (Owren's Veronal buffer) for 5 min at 37° C. […] OD at 405 nm was monitored every 45 s for 180 min at 37° C. with a microplate reader (POLARstar OPTIMA, BMG Labtech, Offenburg, Germany). Fibrinolysis was quantified as the relative decrease in OD at 45 min after the maximum OD was reached. […]

Human factor Xa = target: T1, Human factor Xa (Homo sapiens, UniProt P00742); assay: Inhibition constants against purified human serine proteases: FXa; format: biochemical; details: for Ki: 50 mM Tris-HCl pH 8.0, 154 mM NaCl, Pefachrome FXa
T1 construct: Human factor Xa, factor XIa, factor XIIa, thrombin, and plasma kallikrein were purchased; purchased Enzyme Research Laboratories (via Haemochrom, Essen)
T1 sequence (P00742 235-488 limits assumed): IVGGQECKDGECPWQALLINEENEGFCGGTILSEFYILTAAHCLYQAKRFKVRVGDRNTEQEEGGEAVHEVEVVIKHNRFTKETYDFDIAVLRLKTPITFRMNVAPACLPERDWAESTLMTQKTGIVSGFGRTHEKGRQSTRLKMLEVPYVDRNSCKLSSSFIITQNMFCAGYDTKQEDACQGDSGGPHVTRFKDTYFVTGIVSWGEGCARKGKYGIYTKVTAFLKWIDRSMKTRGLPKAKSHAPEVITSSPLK
T1 sequence (P00742 41-179 partner limits assumed): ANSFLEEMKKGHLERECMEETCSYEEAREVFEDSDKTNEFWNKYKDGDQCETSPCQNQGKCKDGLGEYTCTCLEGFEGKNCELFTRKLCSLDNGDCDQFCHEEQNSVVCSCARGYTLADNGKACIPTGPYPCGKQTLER
Description: (§1) Aprotinin and tranexamic acid were purchased from SIGMA (Schnelldorf, Germany). Human factor Xa, factor XIa, factor XIIa, thrombin, and plasma kallikrein were purchased from Enzyme Research Laboratories, and human plasmin from Chromogenix (both via Haemochrom, Essen, Germany). Various synthetic peptide chromogenic substrates used for determination of inhibition constants were obtained from Pentapharm (Basel, Switzerland), Roche (Mannheim, Germany), and Chromogenix: Chromozyme PL for plasmin, S2302 for plasma kallikrein, Pefachrome FXa for factor Xa, Chromozym XII for FXIIa, Pefachrom tPA for thrombin, and Pefachrome PCa for factor XIa. Tissue-type plasminogen activator was obtained from Boehringer Ingelheim (Ingelheim, Germany). INTEM, EXTEM and STARTEM reagents and disposables for ROTEM® measurements were obtained from Pentapharm (Munich, Germany).
(§2) Inhibition of purified human serine proteases by Compound No. 3 and aprotinin was studied using the established methods described herein in Example 3 (i.e., Stürzebecher et al., 1997). Enzyme kinetic experiments were carried out in 96-well flat-bottom plates (Brand, Wertheim, Germany) in 50 mM Tris-HCl pH 8.0, 154 mM NaCl in the presence of different substrate and inhibitor concentrations. Steady-state velocities of substrate conversion were obtained from progress curves generated by continuous monitoring of the absorbance at 405 nm with a microplate reader (Multiskan Ascent, Thermo Electron Corporation, Dreieich, Germany). […] Inhibition constants (Ki) were calculated from non-linear fits of individual data sets to the Michaelis-Menten equation for competitive inhibitors using an enzyme kinetic analysis software (SIGMA Plot® 9.0 Enzyme Kinetics Module, SSI, San Jose, Calif.). Dixon plot analysis was applied to confirm the competitive inhibition mode.

Thrombin = Thrombin (Homo sapiens, UniProt P00734); assay: Inhibition constants against purified human serine proteases: thrombin; format: biochemical; parameters: Human factor Xa, factor XIa, factor XIIa, thrombin, and plasma kallikrein were purchased; purchased Enzyme Research Laboratories (via Haemochrom, Essen); details: 50 mM Tris-HCl pH 8.0, 154 mM NaCl, Pefachrom tPA
Description: as §1, with “Tissue-type plasminogen activator was obtained from Boehringer Ingelheim (Ingelheim, Germany). INTEM, EXTEM and STARTEM reagents and disposables for ROTEM® measurements were obtained from Pentapharm (Munich, Germany).” left out
as §2, with “Enzyme kinetic experiments were carried out in 96-well flat-bottom plates (Brand, Wertheim, Germany) in 50 mM Tris-HCl pH 8.0, 154 mM NaCl in the presence of different substrate and inhibitor concentrations.” left out, “Dixon plot analysis was applied to confirm the competitive inhibition mode.” left out

whole blood clotting = assay: Whole blood coagulation assay (ROTEM, INTEM/EXTEM); format: cell-based, human; details: for whole blood coagulation times (INTEM, EXTEM clotting time): 100 to 1000 nM; for clot strength (ROTEM maximum amplitude): over the concentration range tested (data not shown)
Description: Since Compound No. 3 inhibits multiple proteases of the coagulation system, we investigated possible anticoagulant properties using established tests in vitro. Whereas tissue factor is the physiologic trigger of coagulation, both extrinsic and contact-mediated stimulation contribute to hemostatic activation under conditions like CPB (Boisclair et al. Blood 82: 3350-7, 1993 and Edmunds et al., Ann. Thorac. Surg. 82: 2315-22, 2006). We therefore studied the impact of Compound No. 3 and aprotinin on coagulation in plasma and whole blood following both intrinsic and extrinsic stimulation. Tranexamic acid has no influence on other proteases than plasminogen and, therefore, is not included in these experiments.
The influence on whole blood clotting was assayed with rotational thrombelastometry (Ganter et al., Anesth. Analg. 106: 1366-75, 2008) using ellagic acid (INTEM reagent) as activator of the intrinsic system or tissue factor (EXTEM reagent) as extrinsic coagulation activator. Following a 5-min pre-incubation with test compounds or saline, citrated human blood was subjected to ROTEM® analysis according to the manufacturer's instructions. ROTEM® clotting time (equal to reaction time, r) and maximum clot strength (equal to maximum amplitude) were obtained as coagulation parameters.

Q: Which results are given for `N=C(N)c1ccc(CNC(=O)[C@H](Cc2cccc(CN)c2)NC(=O)[C@@H](CCCc2ccccc2)NS(=O)(=O)Cc2cccc(C(=O)O)c2)cc1` [compound 3, 3-HOOC-Bzls-d-Ppg-Phe(3-Ame)-4-Amba×2 acetate]?
A: IC50 [1]: 0.315 µM; Ki (Human factor Xa): 45 ± 5 nM; stronger inhibition of FXa than aprotinin (Human factor Xa; versus aprotinin): 1200 fold; Ki (Thrombin): 1700 ± 200 nM; whole blood coagulation times (INTEM, EXTEM clotting time) (whole blood clotting): significant prolongation; clot strength (ROTEM maximum amplitude) (whole blood clotting): Neither Compound No. 3 nor aprotinin impaired clot strength

Q: What does the source list for aprotinin?
A: IC50 on t-PA-induced fibrinolysis in plasma expressed in KIU/mL ([1]; converted from nM): 15 KIU/mL; IC50 [1]: 0.327 µM; Ki (Human factor Xa): 55600 nM; Ki (Thrombin): 76000 nM; whole blood coagulation times (INTEM, EXTEM clotting time) (whole blood clotting): almost no influence; intrinsic ROTEM clotting times (whole blood clotting; higher aprotinin concentrations (data not shown)): marked prolongation; clot strength (ROTEM maximum amplitude) (whole blood clotting): Neither Compound No. 3 nor aprotinin impaired clot strength
